pIC50: −log10 of the molar value.
target: T1, HDM2 (Homo sapiens, UniProt Q00987); assay: HDM2 FRET assay (inhibition of binding of FITC labeled p53-pocket peptide to HDM2); conditions: 0.5 nM HDM2 (residues 17 to 125), 3nM peptide, two hour incubation at room temperature; read-out: FRET IC50
T1 construct: Thioredoxin (N); made in house; host or cells: E. coli strain BL21(DE3)Rosetta
How it was run: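 Compounds were tested in 10-point serial dilution against 0.5 nM recombinant HDM2 binding 3 nM fluorescein-labeled p53-pocket peptide. Detection used 0.25 nM terbium cryptate anti-6xHis antibody in PBS buffer containing 0.01% BSA and 0.01% Tween-20.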

T1 sequence (Q00987 17-125): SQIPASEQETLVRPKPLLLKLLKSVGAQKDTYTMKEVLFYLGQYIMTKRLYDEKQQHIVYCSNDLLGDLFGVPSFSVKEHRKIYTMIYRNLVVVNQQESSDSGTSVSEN

SMILES	pIC50
C[C@H]1CC[C@H](Cn2c(N3CCOC[C@H]3c3ccccc3)nc3nc(-c4noc(=O)[nH]4)nc(-c4ccnc(Cl)c4)c32)CC1 [Example 16.110, 3-{6-(2-chloropyridin-4-yl)-7-[(trans-4-methylcyclohexyl)methyl]-8-[(3R)-3-phenylmorpholin-4-yl]-7H-purin-2-yl}-1,2,4-oxadiazol-5(4H)-one]	8.94
CS(=O)(=O)c1cc(Cl)cc(-c2nc(-c3noc(=O)[nH]3)nc3nc(N4CCOC[C@H]4c4ccccc4)n(C[C@H]4CC[C@H](C)CC4)c23)c1 [Example 16.111, 3-{6-[3-chloro-5-(methylsulfonyl)phenyl]-7-[(trans-4-methylcyclohexyl)methyl]-8-[(3R)-3-phenylmorpholin-4-yl]-7H-purin-2-yl}-1,2,4-oxadiazol-5(4H)-one]	8.54
Cc1nc(-c2cccc(-c3nc(-c4noc(=O)[nH]4)nc4nc(N5CCOC[C@H]5c5ccccc5)n(C[C@H]5CC[C@H](C)CC5)c34)c2)no1 [Example 16.112, 3-{7-[(trans-4-methylcyclohexyl)methyl]-6-[3-(5-methyl-1,2,4-oxadiazol-3-yl)phenyl]-8-[(3R)-3-phenylmorpholin-4-yl]-7H-purin-2-yl}-1,2,4-oxadiazol-5(4H)-one]	7.74
C[C@H]1CC[C@H](Cn2c(N3CCOC[C@H]3c3ccccc3)nc3nc(-c4noc(=O)[nH]4)nc(-c4cc(Cl)cc(N5CCCC5)c4)c32)CC1 [Example 16.113, 3-{6-(3-chloro-5-pyrrolidin-1-ylphenyl)-7-[(trans-4-methylcyclohexyl)methyl]-8-[(3R)-3-phenylmorpholin-4-yl]-7H-purin-2-yl}-1,2,4-oxadiazol-5(4H)-one]	7.83
Cc1cc(Cl)cc(-c2nc(-c3noc(=O)[nH]3)nc3nc(N4CCOC[C@H]4c4ccccc4)n(C[C@H]4CC[C@H](C)CC4)c23)c1 [Example 16.114, 3-{6-(3-chloro-5-methylphenyl)-7-[(trans-4-methylcyclohexyl)methyl]-8-[(3R)-3-phenylmorpholin-4-yl]-7H-purin-2-yl}-1,2,4-oxadiazol-5(4H)-one]	8.81
Cc1cncc(-c2nc(-c3noc(=O)[nH]3)nc3nc(N4CCOC[C@H]4c4ccccc4)n(C[C@H]4CC[C@H](C)CC4)c23)c1 [Example 16.115, 3-{7-[(trans-4-methylcyclohexyl)methyl]-6-(5-methylpyridin-3-yl)-8-[(3R)-3-phenylmorpholin-4-yl]-7H-purin-2-yl}-1,2,4-oxadiazol-5(4H)-one]	8.41
Cc1noc([C@@H]2COCCN2c2nc3nc(-c4noc(=O)[nH]4)nc(-c4cccc(Cl)c4)c3n2C[C@H]2CC[C@H](C)CC2)n1 [Example 16.116, 3-{6-(3-chlorophenyl)-7-[(trans-4-methylcyclohexyl)methyl]-8-[(3S)-3-(3-methyl-1,2,4-oxadiazol-5-yl)morpholin-4-yl]-7H-purin-2-yl}-1,2,4-oxadiazol-5(4H)-one]	8.14
C[C@H]1CC[C@H](Cn2c(N3CCOC[C@H]3C(N)=O)nc3nc(-c4noc(=O)[nH]4)nc(-c4cccc(Cl)c4)c32)CC1 [Example 16.117, (3 S)-4-[6-(3-chlorophenyl)-7-[(trans-4-methylcyclohexyl)methyl]-2-(5-oxo-4,5-dihydro-1,2,4-oxadiazol-3-yl)-7H-purin-8-yl]morpholine-3-carboxamide]	6.98
Cc1csc([C@@H]2COCCN2c2nc3nc(-c4noc(=O)[nH]4)nc(-c4cccc(Cl)c4)c3n2C[C@H]2CC[C@H](C)CC2)n1 [Example 16.120, 3-{6-(3-chlorophenyl)-7-[(trans-4-methylcyclohexyl)methyl]-8-[(3S)-3-(4-methyl-1,3-thiazol-2-yl)morpholin-4-yl]-7H-purin-2-yl}-1,2,4-oxadiazol-5(4H)-one]	8.04
Cc1noc([C@@H]2COCCN2c2nc3nc(-c4n[nH]c(=O)o4)nc(-c4cccc(Cl)c4)c3n2C[C@H]2CC[C@H](C)CC2)n1 [Example 16.121, 5-{6-(3-chlorophenyl)-7-[(trans-4-methylcyclohexyl)methyl]-8-[(3S)-3-(3-methyl-1,2,4-oxadiazol-5-yl)morpholin-4-yl]-7H-purin-2-yl}-1,3,4-oxadiazol-2(3H)-one]	8.04
C[C@@H]1OCCN(c2nc3nc(-c4noc(=O)[nH]4)nc(-c4cccc(Cl)c4)c3n2C[C@H]2CC[C@H](C)CC2)[C@@H]1c1ccccc1 [Example 16.126, 3-{6-(3-chlorophenyl)-7-[(trans-4-methylcyclohexyl)methyl]-8-[(2S,3R)-2-methyl-3-phenylmorpholin-4-yl]-7H-purin-2-yl}-1,2,4-oxadiazol-5(4H)-one]	7.07
C[C@H]1OCCN(c2nc3nc(-c4noc(=O)[nH]4)nc(-c4cccc(Cl)c4)c3n2C[C@H]2CC[C@H](C)CC2)[C@@H]1c1ccccc1 [Example 16.127, 3-{6-(3-chlorophenyl)-7-[(trans-4-methylcyclohexyl)methyl]-8-[(2R,3R)-2-methyl-3-phenylmorpholin-4-yl]-7H-purin-2-yl}-1,2,4-oxadiazol-5(4H)-one]	8.98
C[C@@H]1OCCN(c2nc3nc(-c4noc(=O)[nH]4)nc(-c4cncc(Cl)c4)c3n2C[C@H]2CC[C@H](C)CC2)[C@@H]1c1ccccc1 [Example 16.129, 3-{6-(5-chloropyridin-3-yl)-7-[(trans-4-methylcyclohexyl)methyl]-8-[(2S,3R)-2-methyl-3-phenylmorpholin-4-yl]-7H-purin-2-yl}-1,2,4-oxadiazol-5(4H)-one]	7.66
C[C@@H]1OCCN(c2nc3nc(-c4n[nH]c(=O)o4)nc(-c4cncc(Cl)c4)c3n2C[C@H]2CC[C@H](C)CC2)[C@@H]1c1ccccc1 [Example 16.130, 5-{6-(5-chloropyridin-3-yl)-7-[(trans-4-methylcyclohexyl)methyl]-8-[(2S,3R)-2-methyl-3-phenylmorpholin-4-yl]-7H-purin-2-yl}-1,3,4-oxadiazol-2(3H)-one]	7.54
C[C@@H]1OCCN(c2nc3nc(-c4n[nH]c(=O)o4)nc(-c4cccc(Cl)c4)c3n2C[C@H]2CC[C@H](C)CC2)[C@@H]1c1ccccc1 [Example 16.132, 5-{6-(3-chlorophenyl)-7-[(trans-4-methylcyclohexyl)methyl]-8-[(2S,3R)-2-methyl-3-phenylmorpholin-4-yl]-7H-purin-2-yl} - 1,3,4-oxadiazol-2(3H)-one]	7.05
C[C@H]1OCCN(c2nc3nc(-c4n[nH]c(=O)o4)nc(-c4cncc(Cl)c4)c3n2C[C@H]2CC[C@H](C)CC2)[C@@H]1c1ccccc1 [Example 16.133, 5-{6-(5-chloropyridin-3-yl)-7-[(trans-4-methylcyclohexyl)methyl]-8-[(2R,3R)-2-methyl-3-phenylmorpholin-4-yl]-7H -purin-2-yl}-1,3,4-oxadiazol-2(3H)-one]	9.24
C[C@H]1OCCN(c2nc3nc(-c4noc(=O)[nH]4)nc(-c4cncc(Cl)c4)c3n2C[C@H]2CC[C@H](C)CC2)[C@@H]1c1ccccc1 [Example 16.135, 3-{6-(5-chloropyridin-3-yl)-7-[(trans-4-methylcyclohexyl)methyl]-8-[(2R,3R)-2-methyl-3-phenylmorpholin-4-yl]-7H-purin-2-yl}-1,2,4-oxadiazol-5(4H)-one]	9.30
C[C@@H]1[C@@H](C)OCCN1c1nc2nc(-c3noc(=O)[nH]3)nc(-c3cncc(Cl)c3)c2n1C[C@H]1CC[C@H](C)CC1 [Example 16.136, 3-{6-(5-chloropyridin-3-yl)-8-[(2R,3R)-2,3-dimethylmorpholin-4-yl]-7-[(trans-4-methylcyclohexyl)methyl]-7H-purin-2-yl}-1,2,4-oxadiazol-5(4H)-one]	8.14
